Source: patent publication US20250381243A1, “HETEROCYCLES AND USES THEREOF” (Kumquat Biosciences Inc., priority 2022, published 2025)

test system: A549 cells; experiment: Cell proliferation assay (CellTiter-Glo), cells with K-Ras G12S mutation; type: cell-based; details: Homo sapiens, 500 nM to 5 μM (mixed units), read-out: Inhibition of A549 Cells (IC50)
Protocol: A549 (ATCC CRL-185) and LS123 (ATCC CRL-255) cell lines comprise a G12S mutation and can be used to assess Ras cellular signaling in vitro, e.g., in response to treatment with a compound described herein. A549 culture medium is prepared with RPMI-1640 and 10% heat-inactivated FBS. LS123 culture medium is prepared with RPMI-1640 and 10% heat-inactivated FBS. A CellTiter-Glo (CTG) luminescent based assay (Promega) is used to assess growth of the cells, as a measurement of the ability of the compounds herein to inhibit Ras signaling in the cells. The cells (e.g., 800 per well) are seeded in their respective culture medium in standard tissue culture-treated 384-well format plates (Falcon #08-772-116) or ultra-low attachment surface 384-well format plates (S-Bio #MS-9384WZ). The day after plating, cells are treated with a dilution series (e.g., a 10 point 3-fold dilution series) of the compounds herein (e.g., approximately 40 μl final volume per well). Cell viability can be monitored (e.g., approximately 6 days later) according to the manufacturer's recommended instructions, where CellTiter-Glo reagent is added (e.g., approximately 10 μl), vigorously mixed, covered, and placed on a plate shaker (e.g., approximately for 20 min) to ensure sufficient cell lysis prior to assessment of luminescent signal. The IC50 values are determined using the four parameter fit. The resulting IC50 value is a measurement of the ability of the test compound to reduce cell growth of Ras-driven cells (e.g., tumor cell lines) in vitro and/or in vivo.

IC50 [nM] | Structure (SMILES)
500 to 5000 | CCN(C(=O)n1cnc(Cl)n1)C1CCN(c2nc(OC[C@@]34CCCN3C[C@H](F)C4)nc3c(F)c(-c4ccc(F)c5sc(N)c(C#N)c45)c(Cl)cc23)C1C (stereo partly drawn) [Compound 149, N-(1-(7-(2-amino-3-cyano-7-fluorobenzo[b]thiophen-4-yl)-6-chloro-8-fluoro-2-(((2R,7aS)-2-fluorotetrahydro-1H-pyrrolizin-7a(5H)-yl)methoxy)quinazolin-4-yl)-2-methylpyrrolidin-3-yl)-3-chloro-N-ethyl-1H-1,2,4-triazole-1-carboxamide]
500 to 5000 | N#CCCN(C(=O)n1cncn1)C1CCN(c2nc(OC[C@@]34CCCN3C[C@H](F)C4)nc3c(F)c(-c4ccc(F)c5sc(N)c(C#N)c45)c(Cl)cc23)C1 (stereo partly drawn) [Compound 145, N-(1-(7-(2-amino-3-cyano-7-fluorobenzo[b]thiophen-4-yl)-6-chloro-8-fluoro-2-(((2R,7aS)-2-fluorotetrahydro-1H-pyrrolizin-7a(5H)-yl)methoxy)quinazolin-4-yl)pyrrolidin-3-yl)-N-(2-cyanoethyl)-1H-1,2,4-triazole-1-carboxamide]

same assay, conditions: Homo sapiens, ≤500 nM, read-out: Inhibition of A549 Cells (IC50)

IC50 [nM] | Structure (SMILES)
≤ 500 | CC(C)[C@H]1N(C(=O)n2cnc(C(F)F)n2)C[C@]12CCCCN(c1nc(OC[C@@]34CCCN3C[C@H](F)C4)nc3c(F)c(-c4ccc(F)c5sc(N)c(C#N)c45)c(Cl)cc13)C2 [Compound 226, 2-amino-4-(6-chloro-4-((1R,4R)-2-(3-(difluoromethyl)-1H-1,2,4-triazole-1-carbonyl)-1-isopropyl-2,6-diazaspiro[3.6]decan-6-yl)-8-fluoro-2-(((2R,7aS)-2-fluorotetrahydro-1H-pyrrolizin-7a(5H)-yl)methoxy)quinazolin-7-yl)-7-fluorobenzo[b]thiophene-3-carbonitrile]
≤ 500 | CN(C(=O)n1cncn1)C1CCCCN(c2nc(OC[C@@]34CCCN3C[C@H](F)C4)nc3c(F)c(-c4ccc(F)c5sc(N)c(C#N)c45)c(Cl)cc23)C1 (stereo partly drawn) [Compound 161, N-(1-(7-(2-amino-3-cyano-7-fluorobenzo[b]thiophen-4-yl)-6-chloro-8-fluoro-2-(((2R,7aS)-2-fluorotetrahydro-1H-pyrrolizin-7a(5H)-yl)methoxy)quinazolin-4-yl)azepan-3-yl)-N-methyl-1H-1,2,4-triazole-1-carboxamide]
≤ 500 | CC(C)[C@H]1N(C(=O)n2cnc(C(F)F)n2)C[C@]12CC[C@H](C)N(c1nc(OC[C@@]34CCCN3C[C@H](F)C4)nc3c(F)c(-c4ccc(F)c5sc(N)c(C#N)c45)c(Cl)cc13)C2 (atropisomer, axis not shown; (aS)) [Compound 109, (R)-2-amino-4-(6-chloro-4-((1R,4R,7S)-2-(3-(difluoromethyl)-1H-1,2,4-triazole-1-carbonyl)-1-isopropyl-7-methyl-2,6-diazaspiro[3.5]nonan-6-yl)-8-fluoro-2-(((2R,7aS)-2-fluorotetrahydro-1H-pyrrolizin-7a(5H)-yl)methoxy)quinazolin-7-yl)-7-fluorobenzo[b]thiophene-3-carbonitrile]
≤ 500 | CCN(C[C@@H]1CN(C(=O)n2cnc(Cl)n2)[C@@H]1C(C)C)c1nc(OC[C@@]23CCCN2C[C@H](F)C3)nc2c(F)c(-c3ccc(F)c4sc(N)c(C#N)c34)c(Cl)cc12 [Compound 154, 2-amino-4-(6-chloro-4-((((2R,3R)-1-(3-chloro-1H-1,2,4-triazole-1-carbonyl)-2-isopropylazetidin-3-yl)methyl)(ethyl)amino)-8-fluoro-2-(((2R,7aS)-2-fluorotetrahydro-1H-pyrrolizin-7a(5H)-yl)methoxy)quinazolin-7-yl)-7-fluorobenzo[b]thiophene-3-carbonitrile]
≤ 500 | N#Cc1c(N)sc2c(F)ccc(-c3c(Cl)cc4c(N5CCCC6(C5)CN(C(=O)n5cncn5)C6C5CC5)nc(OC[C@@]56CCCN5C[C@H](F)C6)nc4c3F)c12 (stereo partly drawn) [Compound 127, 2-amino-4-(6-chloro-4-(1-cyclopropyl-2-(1H-1,2,4-triazole-1-carbonyl)-2,6-diazaspiro[3.5]nonan-6-yl)-8-fluoro-2-(((2R,7aS)-2-fluorotetrahydro-1H-pyrrolizin-7a(5H)-yl)methoxy)quinazolin-7-yl)-7-fluorobenzo[b]thiophene-3-carbonitrile]
≤ 500 | CC(C)[C@H]1N(C(=O)n2cnc(Cl)n2)C[C@]12C[C@@H](CC#N)CN(c1nc(OC[C@@]34CCCN3C[C@H](F)C4)nc3c(F)c(-c4ccc(F)c5sc(N)c(C#N)c45)c(Cl)cc13)C2 [Compound 137, 2-amino-4-(6-chloro-4-((1R,4R,8S)-2-(3-chloro-1H-1,2,4-triazole-1-carbonyl)-8-(cyanomethyl)-1-isopropyl-2,6-diazaspiro[3.5]nonan-6-yl)-8-fluoro-2-(((2R,7aS)-2-fluorotetrahydro-1H-pyrrolizin-7a(5H)-yl)methoxy)quinazolin-7-yl)-7-fluorobenzo[b]thiophene-3-carbonitrile]
≤ 500 | N#Cc1c(N)sc2c(F)ccc(-c3c(Cl)cc4c(N5CCCC[C@@]6(C5)CN(C(=O)n5cnc(Cl)n5)[C@@H]6C5CC5)nc(OC[C@@]56CCCN5C[C@H](F)C6)nc4c3F)c12 [Compound 147, 2-amino-4-(6-chloro-4-((1R,4R)-2-(3-chloro-1H-1,2,4-triazole-1-carbonyl)-1-cyclopropyl-2,6-diazaspiro[3.6]decan-6-yl)-8-fluoro-2-(((2R,7aS)-2-fluorotetrahydro-1H-pyrrolizin-7a(5H)-yl)methoxy)quinazolin-7-yl)-7-fluorobenzo[b]thiophene-3-carbonitrile]
≤ 500 | CC(C)[C@H]1N(C(=O)n2cnc(Cl)n2)C[C@@]1(C)CN(C)c1nc(OC[C@@]23CCCN2C[C@H](F)C3)nc2c(F)c(-c3ccc(F)c4sc(N)c(C#N)c34)c(Cl)cc12 [Compound 210, 2-amino-4-(6-chloro-4-((((2R,3R)-1-(3-chloro-1H-1,2,4-triazole-1-carbonyl)-2-isopropyl-3-methylazetidin-3-yl)methyl)(methyl)amino)-8-fluoro-2-(((2R,7aS)-2-fluorotetrahydro-1H-pyrrolizin-7a(5H)-yl)methoxy)quinazolin-7-yl)-7-fluorobenzo[b]thiophene-3-carbonitrile]
≤ 500 | CC(C)[C@H]1N(C(=O)n2cncn2)C[C@@]12CN(c1nc(OC[C@@]34CCCN3C[C@H](F)C4)nc3c(F)c(-c4ccc(F)c5sc(N)c(C#N)c45)c(Cl)cc13)CCO2 [Compound 104, 2-amino-4-(6-chloro-8-fluoro-2-(((2R,7aS)-2-fluorotetrahydro-1H-pyrrolizin-7a(5H)-yl)methoxy)-4-((1R,4S)-1-isopropyl-2-(1H-1,2,4-triazole-1-carbonyl)-5-oxa-2,8-diazaspiro[3.5]nonan-8-yl)quinazolin-7-yl)-7-fluorobenzo[b]thiophene-3-carbonitrile]
≤ 500 | CN(C[C@@H]1CN(C(=O)n2cnc(C#N)n2)[C@@H]1C1CCC1)c1nc(OC[C@@]23CCCN2C[C@H](F)C3)nc2c(F)c(-c3ccc(F)c4sc(N)c(C#N)c34)c(Cl)cc12 (atropisomer, axis not shown; (aS)) [Compound 150, 1-((2R,3R)-3-(((7-((R)-2-amino-3-cyano-7-fluorobenzo[b]thiophen-4-yl)-6-chloro-8-fluoro-2-(((2R,7aS)-2-fluorotetrahydro-1H-pyrrolizin-7a (5H)-yl)methoxy)quinazolin-4-yl)(methyl)amino)methyl)-2-cyclobutylazetidine-1-carbonyl)-1H-1,2,4-triazole-3-carbonitrile]
≤ 500 | N#Cc1c(N)sc2c(F)ccc(-c3c(Cl)cc4c(N5CCC(N(C(=O)n6cnc(Cl)n6)C6CC6)C5)nc(OC[C@@]56CCCN5C[C@H](F)C6)nc4c3F)c12 (stereo partly drawn) [Compound 143, N-(1-(7-(2-amino-3-cyano-7-fluorobenzo[b]thiophen-4-yl)-6-chloro-8-fluoro-2-(((2R,7aS)-2-fluorotetrahydro-1H-pyrrolizin-7a(5H)-yl)methoxy)quinazolin-4-yl)pyrrolidin-3-yl)-3-chloro-N-cyclopropyl-1H-1,2,4-triazole-1-carboxamide]
≤ 500 | CC1C(N(C)C(=O)n2cncn2)CCN1c1nc(OC[C@@]23CCCN2C[C@H](F)C3)nc2c(F)c(-c3ccc(F)c4sc(N)c(C#N)c34)c(Cl)cc12 (stereo partly drawn) [Compound 125, N-(1-(7-(2-amino-3-cyano-7-fluorobenzo[b]thiophen-4-yl)-6-chloro-8-fluoro-2-(((2R,7aS)-2-fluorotetrahydro-1H-pyrrolizin-7a(5H)-yl)methoxy)quinazolin-4-yl)-2-methylpyrrolidin-3-yl)-N-methyl-1H-1,2,4-triazole-1-carboxamide]
≤ 500 | CC(C)[C@@H]1[C@H](CN(C)c2nc(OC[C@@]34CCCN3C[C@H](F)C4)nc3c(F)c(-c4ccc(F)c5sc(N)c(C#N)c45)c(Cl)cc23)CN1C(=O)n1cnc(C(F)F)n1 [Compound 230, 2-amino-4-(6-chloro-4-((((2R,3R)-1-(3-(difluoromethyl)-1H-1,2,4-triazole-1-carbonyl)-2-isopropylazetidin-3-yl)methyl)(methyl)amino)-8-fluoro-2-(((2R,7aS)-2-fluorotetrahydro-1H-pyrrolizin-7a(5H)-yl)methoxy)quinazolin-7-yl)-7-fluorobenzo[b]thiophene-3-carbonitrile]
